Measured values taken from patent US20080031868A1, “HUMAN LYSOZYME MEDICINE, ITS MANUFACTURING METHOD AND APPLICATION THEREOF” (priority 2005, published 2008).
Marks after values point to notes of the source that are not given here.

What was measured:
[1] = test system: Staphylococcus aureus MRSABAA-42; experiment: Bronchus pneumonia mice infected by Staphylococcus aureus MRSA BAA-42, treated by atomization inspiring; type: in vivo; conditions: for accumulative survival number: 30 mice; for survival elevation rate (%): versus infected model group; for bacterial number: mice lung
[2] = test system: Staphylococcus aureus MRSABAA-42; experiment: as above; type: in vivo; conditions: for survival rate (%): 14 days; for bacterial number: mice lung
Description: A, atomization sucks gene recombinant Human Lysozyme (HLZ) cured bronchus pneumonia mice infected by Staphylococcus aureus MRSABAA-42
Choose the test lawn, after washing with the physiological saline, correcting by McB tubes for comparative tests bacterium solution concentration 2#MCF, turbidity of 2.7×10^11 CFU/ml, diluted with physiological saline separately into 10^−1, 10^−2, 10^−3 bacterium solution, drip the nose to infect for mice respectively (anaesthetize the mice with the pentobarbital first, 30 mg/kg, ip.), 0.05 ml a mouse. Observed the mice body changing, and killed parts of mice after infecting 48 h, fetch the whole lung to tissue homogenate, 10 times diluted by physiological saline, draw 0.1 m1 to MH agar plate surface, to cultivate last night 35° C., Gram staining, test under microscope, and count plate. At the same time recorded the number of death mice, and collect some mice tracheas, bronchus, lung tissue and do pathology tissue observing.
It is called medial lethal dose (LD50) that bacterium amount caused mice appearing lung pharmacology change and 50% died. LD50was used as experimental treatment amount.
Infected mice is divided into 10 groups at random according to the weight, 30 every groups.
Designed dosage: The concentration of recombinant human lysozyme medicine was 15000 u/ml as in clinical atomization therapy. Its dose was 15000 u per time and administrated one time everyday, I.e 0.5 mg per time everyday. The dose was 1.3×10-3 mg a mice (counted by weight of 20 g). […] To ensure the breathing amount of lysozyme, the breathing time were extended for 0.5 hour. Based on 0.5 mg/ml, the concentration of 0.25 mg/ml, 1.0 mg/ml and 2.0 mg/ml were set respectively as treatment dose.
The same group mice were put into the ultrasonic atomizer and then treated with human lysozyme atomized in the compression sprayer (PARL.BOY), twice a day, 5 days in succession.
Every group, from the infected day to calculae, the animal incidence and death were recorded 14 days in succession. Every group collected 2-3 mice and killed them the 14th day after infecting, did bacteriology detection after lung homogenate, killed surplus animal to fetch the trachea, bronchus, fixed in 10% of the formaldehyde solution after weighing, did pathology check.
The bacterial culture: A part of mice were killed after infecting 24 h, fetched the whole lung weighting, added 2 ml degerming PBS solution 10 times diluted, draw 0.1 mL to MH agar plate surface, to cultivate last night 35° C., counted in the cultivation plateform of 30-300 CF, if the two close level tissue fluid is 30-300 CFU, counted the low density (make 3 plateforms at the same time each tissue fluid, calculate the average). Collected 2 mice to do bacterial culture in every group at random in 5, 7, 14 days after administration.
Pathology detection: After dissecting the mice, observed the trachea, bronchus, syncretio of lung, chest wall and membrana pleuralis, the volume of lung and size of lung focus, the lung surface was congested, hydroncus, consolidation and atelectasis by the naked eye. Took out the trachea, bronchus and the whole lung tissue to fixed with 10% of the formaldehyde solution, draw materials.

[3] = 0.25 mg/ml atomization inspired
[4] = 0.25 mg/ml atomization inspired, 14 days
[5] = 0.5 mg/ml atomization inspired, 14 days
[6] = 2 mg/ml atomization inspired, 14 days
[7] = 0.25 mg/ml atomization inspired, listed as gene recombinant human lysozyme
[8] = 0.25 mg/ml atomization inspired, listed as recombinant human lysozyme

Human lysozyme: gene recombinant Human Lysozyme (HLZ), active unit 30000 u/mg, batch number 020110; given atomized / as aerosol
average survival day (day, x ± s) [1, 3]: 9.30 ± 4.08 days
accumulative survival number [1, 4]: 12
survival rate (%) [1, 4]: 40.0%
Death number(piece) ([1]; 0.25 mg/ml atomization inspired, day 1): 0 piece
Death number(piece) ([1]; 0.25 mg/ml atomization inspired, day 2): 0 piece
Death number(piece) ([1]; 0.25 mg/ml atomization inspired, day 3): 1 piece
Death number(piece) ([1]; 0.25 mg/ml atomization inspired, day 4): 2 piece
Death number(piece) ([1]; 0.25 mg/ml atomization inspired, day 5): 3 piece
Death number(piece) ([1]; 0.25 mg/ml atomization inspired, day 6): 3 piece
Death number(piece) ([1]; 0.25 mg/ml atomization inspired, day 7): 5 piece
Death number(piece) ([1]; 0.25 mg/ml atomization inspired, day 8): 4 piece
Death number(piece) ([1]; 0.25 mg/ml atomization inspired, day 9): 0 piece
Death number(piece) ([1]; 0.25 mg/ml atomization inspired, day 10): 0 piece
Death number(piece) ([1]; 0.25 mg/ml atomization inspired, day 11): 0 piece
Death number(piece) ([1]; 0.25 mg/ml atomization inspired, day 12): 0 piece
Death number(piece) ([1]; 0.25 mg/ml atomization inspired, day 13): 0 piece
Death number(piece) ([1]; 0.25 mg/ml atomization inspired, day 14): 0 piece
survival elevation rate (%) [1, 3]: 23.3%
average survival day (day, x ± s) ([1]; 0.5 mg/ml atomization inspired): 10.3 ± 3.77***^Δ day
accumulative survival number [1, 5]: 14
survival rate (%) [1, 5]: 46.7%
Death number(piece) ([1]; 0.5 mg/ml atomization inspired, day 1): 0 piece
Death number(piece) ([1]; 0.5 mg/ml atomization inspired, day 2): 0 piece
Death number(piece) ([1]; 0.5 mg/ml atomization inspired, day 3): 0 piece
Death number(piece) ([1]; 0.5 mg/ml atomization inspired, day 4): 2 piece
Death number(piece) ([1]; 0.5 mg/ml atomization inspired, day 5): 2 piece
Death number(piece) ([1]; 0.5 mg/ml atomization inspired, day 6): 3 piece
Death number(piece) ([1]; 0.5 mg/ml atomization inspired, day 8): 5 piece
Death number(piece) ([1]; 0.5 mg/ml atomization inspired, day 9): 0 piece
Death number(piece) ([1]; 0.5 mg/ml atomization inspired, day 10): 0 piece
Death number(piece) ([1]; 0.5 mg/ml atomization inspired, day 11): 0 piece
Death number(piece) ([1]; 0.5 mg/ml atomization inspired, day 12): 0 piece
Death number(piece) ([1]; 0.5 mg/ml atomization inspired, day 13): 0 piece
Death number(piece) ([1]; 0.5 mg/ml atomization inspired, day 14): 0 piece
survival elevation rate (%) ([1]; 0.5 mg/ml atomization inspired): 30.0%
survival rate ([1]; 1 mg/ml atomization inspired, 14 days): 56.7%
average survival day (day, x ± s) ([1]; 2 mg/ml atomization inspired): 12.93 ± 2.05***^ΔΔΔ day
accumulative survival number [1, 6]: 23
survival rate (%) [1, 6]: 76.7%
Death number(piece) ([1]; 2 mg/ml atomization inspired, day 1): 0 piece
Death number(piece) ([1]; 2 mg/ml atomization inspired, day 2): 0 piece
Death number(piece) ([1]; 2 mg/ml atomization inspired, day 3): 0 piece
Death number(piece) ([1]; 2 mg/ml atomization inspired, day 4): 0 piece
Death number(piece) ([1]; 2 mg/ml atomization inspired, day 5): 0 piece
Death number(piece) ([1]; 2 mg/ml atomization inspired, day 6): 0 piece
Death number(piece) ([1]; 2 mg/ml atomization inspired, day 7): 0 piece
Death number(piece) ([1]; 2 mg/ml atomization inspired, day 9): 2 piece
Death number(piece) ([1]; 2 mg/ml atomization inspired, day 10): 1 piece
Death number(piece) ([1]; 2 mg/ml atomization inspired, day 11): 2 piece
Death number(piece) ([1]; 2 mg/ml atomization inspired, day 12): 0 piece
Death number(piece) ([1]; 2 mg/ml atomization inspired, day 13): 0 piece
Death number(piece) ([1]; 2 mg/ml atomization inspired, day 14): 0 piece
survival elevation rate (%) ([1]; 2 mg/ml atomization inspired): 60.0%
improving of survival rate and days over infected control group ([1]; 2, 1, 0.5 mg/ml, p<0.05): 30-60%
lung bacterial number ([1]; by the 14th day, basically negative): < 10 CFU/ml
The 4th day (bacterial number, head incomplete) ([1]; dose 0.5): 5.0 ± 3.0
The 5th day (bacterial number, head incomplete) ([1]; dose 0.5, the 5th day): 80.80 ± 14.28
The 4th day (bacterial number, head incomplete) ([1]; dose 1): 5.5 ± 3.2
The 5th day (bacterial number, head incomplete) ([1]; dose 1, the 5th day): 78.30 ± 17.86
The 4th day (bacterial number, head incomplete) ([1]; dose 2): 3.5 ± 2.0
The 5th day (bacterial number, head incomplete) ([1]; dose 2, the 5th day): 76.70 ± 11.60
result of pathology detection of the mice bronchus ([1]; high dose 2 mg/ml, 3rd day): bronchus moderate inflammation, mucous membrane
result of pathology detection of the mice lung tissue ([1]; high dose 2 mg/ml, 3rd day): part of alveolar wall tissue thickening, few monocaryon
result of pathology detection of the mice trachea ([1]; high dose 2 mg/ml, 3rd day): acute moderate inflammation
result of pathology detection of the mice bronchus ([1]; high dose 2 mg/ml, 7th day): bronchus moderate inflammation, intact mucous
result of pathology detection of the mice lung tissue ([1]; high dose 2 mg/ml, 7th day): normal basically
result of pathology detection of the mice trachea ([1]; high dose 2 mg/ml, 7th day): Normal basically
result of pathology detection of the mice bronchus ([1]; high dose 2 mg/ml, 14th day): Normal basically
result of pathology detection of the mice bronchus ([1]; low dose 0.5 mg/ml, 3rd day): bronchus moderate inflammation
result of pathology detection of the mice lung tissue ([1]; low dose 0.5 mg/ml, 3rd day): the disperse alveolar wall tissue gently thickening,
result of pathology detection of the mice trachea ([1]; low dose 0.5 mg/ml, 3rd day): acute hyperphlogosis
result of pathology detection of the mice bronchus ([1]; low dose 0.5 mg/ml, 7th day): bronchus moderate inflammation
result of pathology detection of the mice lung tissue ([1]; low dose 0.5 mg/ml, 7th day): the part or disperse alveolar wall tissue gently
result of pathology detection of the mice trachea ([1]; low dose 0.5 mg/ml, 7th day): acute hyperphlogosis
result of pathology detection of the mice bronchus ([1]; low dose 0.5 mg/ml, 14th day): bronchus moderate inflammation, bleeding
result of pathology detection of the mice trachea ([1]; low dose 0.5 mg/ml, 14th day): acute mild inflammation
result of pathology detection of the mice bronchus ([1]; medium dose 1 mg/ml, 3rd day): bronchus moderate inflammation, bleeding, hydroncus,
result of pathology detection of the mice lung tissue ([1]; medium dose 1 mg/ml, 3rd day): bronchiole alveolar wall tissue thickening, few
result of pathology detection of the mice trachea ([1]; medium dose 1 mg/ml, 3rd day): acute moderate inflammation
result of pathology detection of the mice bronchus ([1]; medium dose 1 mg/ml, 7th day): bronchus moderate inflammation
result of pathology detection of the mice trachea ([1]; medium dose 1 mg/ml, 7th day): acute moderate inflammation
result of pathology detection of the mice bronchus ([1]; medium dose 1 mg/ml, 14th day): bronchus moderate inflammation
result of pathology detection of the mice lung tissue ([1]; medium dose 1 mg/ml, 14th day): normal basically
result of pathology detection of the mice trachea ([1]; medium dose 1 mg/ml, 14th day): Normal basically
pharmacology histology detection of trachea, bronchus, lung tissue ([1]; mice killed on the 7th, 14th day after administration): turned to normal basically
bacterial number ([1]; atomization inspired 0.5 (15000 u/piece), the 1th day): 350.60 ± 21.5 CFU/mL
bacterial number ([1]; atomization inspired 0.5 (15000 u/piece), the 3rd day): 241.90 ± 16.62 CFU/mL
bacterial number ([1]; atomization inspired 0.5 (15000 u/piece), the 5th day): 134.60 ± 13.58 CFU/mL
bacterial number ([1]; atomization inspired 0.5 (15000 u/piece), the 14th day): 57.60 ± 15.37 CFU/mL
bacterial number ([1]; atomization inspired 1 (30000 u/piece), 0 day): 350 ± 21.5 CFU/mL
bacterial number ([1]; atomization inspired 1 (30000 u/piece), the 1th day): 254.20 ± 25.42 CFU/mL
bacterial number ([1]; atomization inspired 1 (30000 u/piece), the 3rd day): 172.70 ± 17.62**^ΔΔ CFU/mL
bacterial number ([1]; atomization inspired 1 (30000 u/piece), the 14th day): 3.5 ± 0.20 CFU/mL
bacterial number ([1]; atomization inspired 2 (60000 u/piece), the 1th day): 253.80 ± 22.88 CFU/mL
bacterial number ([1]; atomization inspired 2 (60000 u/piece), the 3rd day): 165.80 ± 16.08^ΔΔ CFU/mL
bacterial number ([1]; atomization inspired 2 (60000 u/piece), the 5th day): 76.70 ± 11.60***^ΔΔ CFU/mL
bacterial number ([1]; atomization inspired 2 (60000 u/piece), the 14th day): 2.50 ± 1.46 CFU/mL
survival rate (%) [2, 7]: 40%
survival rate (%) [2, 8]: 40%
average survival day (day, x ± s) [2, 7]: 9.30 ± 4.08 days
average survival day (day, x ± s) [2, 8]: 9.30 ± 4.08 days
Death number(piece) ([2]; 0.5 mg/ml atomization inspired, day 7): 4 piece
average survival day (day, x ± s) ([2]; 0.5 mg/ml atomization inspired, listed as gene recombinant human lysozyme): 10.3 ± 3.77 days
average survival day (day, x ± s) ([2]; 0.5 mg/ml atomization inspired, listed as recombinant human lysozyme): 3.77 ± 10.3 days
survival number ([2]; 1 mg/ml atomization inspired, 30 mice): 17
average survive days ([2]; 1 mg/ml atomization inspired, listed as gene recombinant human lysozyme): 11.2 ± 3.36 days
average survive days ([2]; 1 mg/ml atomization inspired, listed as recombinant human lysozyme): 11.23 ± 3.36 days
Death number(piece) ([2]; 2 mg/ml atomization inspired, day 8): 2 piece
average survival day (day, x ± s) ([2]; 2 mg/ml atomization inspired, listed as gene recombinant human lysozyme): 12.93 ± 2.05 days
average survival day (day, x ± s) ([2]; 2 mg/ml atomization inspired, listed as recombinant human lysozyme): 12.93 ± 2.05 days
result of pathology detection of the mice lung tissue ([2]; high dose 2 mg/ml, 14th day): normal basically
result of pathology detection of the mice trachea ([2]; high dose 2 mg/ml, 14th day): Normal basically
result of pathology detection of the mice lung tissue ([2]; low dose 0.5 mg/ml, 14th day): bronchiole alveolar wall tissue gently thickening, few
result of pathology detection of the mice lung tissue ([2]; medium dose 1 mg/ml, 7th day): few monocaryon infiltrating
bacterial number ([2]; atomization inspired 0.5 (15000 u/piece), 0 day): 350 ± 21.5 CFU/mL
bacterial number ([2]; atomization inspired 1 (30000 u/piece), the 5th day): 78.30 ± 17.86**^ΔΔ CFU/mL
bacterial number ([2]; atomization inspired 2 (60000 u/piece), 0 day): 350 ± 21.5 CFU/mL
95% feasible limits of ED50 ([2]; mice survival over 14 days, Bliss method): 200 to 900 µg/mL
ED50 (median effective dose) ([2]; mice survival over 14 days, Bliss method, atomization inspired): 530 µg/mL
